Data published in article PMC4891693, “Discovery of prenylated flavonoids with dual activity against influenza virus and Streptococcus pneumoniae” (Scientific Reports, 2016).
Converted amounts (≈) assume the structure as drawn. “And” between values parts separate entries of the source, which are not always exact repeats. Identical values can stand only once. “Also recorded” adds a separate entry of the source. Like-named read-outs stand apart in the source and are kept apart here.

Assays:
[1] = tested on: human erythrocytes
[2] = tested on: human erythrocytes; remark: listed apart in the source
[3] = molecular target: influenza virus A/WSN/33 NA (Influenza A virus, UniProt P03470); test: biochemical
[4] = tested on: NA of S. pneumoniae DSM20566 (precipitated bacterial proteins); test: Hemagglutination (HA)-based NA inhibition assay, bacterial; assay type: biochemical, Streptococcus pneumoniae; conditions: pure compounds; total protein of DSM20566; human erythrocytes; highest tested 100 μM
From the text: Inhibition of pneumococcal NAs circumvents hemagglutination.

[5] = tested on: influenza virus A/WSN/33; test: microbe, parasite or virus in culture; assay type: cell-based; conditions: read-out: IC50 of CPE assay (A/WSN/33)
[6] = tested on: IAV Jena/8178/2009 (8178/09); test: microbe, parasite or virus in culture; assay type: cell-based, Influenza A virus; conditions: 48 h, read-out: IC50 of CPE IAV 8178/09
[7] = in vitro; conditions: dog
[8] = in vitro; conditions: human
[9] = tested on: human erythrocytes; test: Interference with hemagglutination in the viral HA assay
[10] = tested on: human lung carcinoma cells (A549)
[11] = tested on: Madin-Darby canine kidney (MDCK) cells
[12] = tested on: IAV 8178/09 in A549 cells; assay type: cell-based, Influenza A virus; conditions: 50 µM
[13] = Cytotoxicity in MDCK cells; conditions: dog
[14] = Cytotoxicity in A549 cells; conditions: human
[15] = tested on: Madin-Darby canine kidney (MDCK) cells; test: Cytotoxicity in MDCK cells; conditions: read-out: CC50 in MDCK cells; pure compounds; 72 h; highest tested 100 μM
[16] = tested on: human lung carcinoma cells (A549); test: Cytotoxicity in A549 cells; conditions: read-out: CC50 in A549 cells; pure compounds; 72 h; highest tested 100 μM
[17] = tested on: S. pneumoniae DSM20566 biofilm; test: Scanning electron microscopy of pneumococcal biofilm on glass slides; assay type: cell-based, Streptococcus pneumoniae; conditions: 10 μM, 7 days
[18] = pure compounds, human erythrocytes, 2 h at 4 °C
[19] = treatment from 3 h after inoculation

influenza virus A/WSN/33 NA, sequence (P03470 whole entry, looked up): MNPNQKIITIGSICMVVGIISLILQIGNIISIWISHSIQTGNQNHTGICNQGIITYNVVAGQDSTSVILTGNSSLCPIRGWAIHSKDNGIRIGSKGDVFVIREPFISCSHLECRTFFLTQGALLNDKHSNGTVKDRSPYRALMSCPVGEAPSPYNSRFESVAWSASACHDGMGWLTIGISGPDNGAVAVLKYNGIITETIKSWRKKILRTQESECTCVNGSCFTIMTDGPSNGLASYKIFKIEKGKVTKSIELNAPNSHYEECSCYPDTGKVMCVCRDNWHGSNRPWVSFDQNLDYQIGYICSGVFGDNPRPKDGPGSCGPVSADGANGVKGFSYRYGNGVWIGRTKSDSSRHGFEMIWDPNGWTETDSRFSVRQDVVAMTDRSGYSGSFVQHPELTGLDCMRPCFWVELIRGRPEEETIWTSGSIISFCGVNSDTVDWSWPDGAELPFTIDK

## O=c1cc(-c2ccc(O)c(O)c2O)oc2cc(O)cc(O)c12 [Compound 14, 2',3',4',5,7-pentahydroxyflavone]
[1]
  sample concentrations provoking induction of erythrocyte lysis in bacterial HA assay: no
[2]
  sample concentrations provoking induction of erythrocyte lysis in viral HA assay: no
[3]
  IC50: > 100 µM
[4]
  MIC in HA assay against S. pneumoniae DSM20566: 72.6 ± 37.5 µM (≈ 21.9 µg/mL)
[5]; WSN, MDCK
  IC50: > 100 µM
[6]; Influenza A virus, MDCK
  IC50: > 100 µM
[7]
  CC50 at 72 h: > 100 µM
[8]
  CC50 at 72 h: > 100 µM
[9]
  sample concentrations provoking prevention of virus-induced hemagglutination in viral HA assay: no

## sanggenon G [Compound 4]
[1]
  sample concentrations provoking induction of erythrocyte lysis in bacterial HA assay: 31.6 to 100 µM
[3]; read-out: IC50 in FL assay (influenza virus A/WSN/33 NA)
  IC50: 61.7 ± 17.8 µM
[4]
  MIC in HA assay against S. pneumoniae DSM20566: 5.4 µM and 5.44 ± 3.95 µM
[10]
  CC50: 72.9 ± 17.2 µM
[11]
  CC50: > 100 µM
[5]
  IC50: 15.2 ± 14 µM
[6]
  IC50: 8.78 ± 0.89 µM
[9]; [18]
  sample concentrations provoking induction of erythrocyte lysis in viral HA assay: 10 to 100 µM
  sample concentrations provoking prevention of virus-induced hemagglutination in viral HA assay: 3.1 to 100 µM

## CC(C)=CCC/C(C)=C/Cc1c(O)ccc([C@@H]2CC(=O)c3c(O)cc(O)cc3O2)c1O [Compound 5, sanggenol A]
[1]; human
  sample concentrations provoking induction of erythrocyte lysis in bacterial HA assay: 100 µM
[2]; human
  sample concentrations provoking induction of erythrocyte lysis in viral HA assay: 100 or no
[3]
  IC50: 65.5 ± 9.29 µM
[4]
  MIC in HA assay against S. pneumoniae DSM20566: 31.6 µM and 31.6 ± 0.00 µM
[5]; WSN, MDCK
  IC50: 35.4 ± 14.6 µM
[12]
  viral yield in A549 cells in the presence of NanA of DSM20566: 31.8 ± 4.5%
  virus yield in A549 cells in the absence of NanA: 5.1 ± 1.8%
[7]
  CC50 at 72 h: 42.1 ± 4.45 µM
[8]
  CC50 at 72 h: > 100 µM
[9]
  sample concentrations provoking prevention of virus-induced hemagglutination in viral HA assay: 100 or no

## O=C1CC(c2ccc(O)cc2O)Oc2cc(O)cc(O)c21 (stereo not drawn) [Compound 12, 2',4',5,7-tetrahydroxyflavanone]
[1]
  sample concentrations provoking induction of erythrocyte lysis in bacterial HA assay: no
[2]
  sample concentrations provoking induction of erythrocyte lysis in viral HA assay: no
[3]
  IC50: 77.7 ± 5.56 µM
[4]
  MIC in HA assay against S. pneumoniae DSM20566: 72.6 ± 37.5 µM (≈ 20.9 µg/mL)
[5]; WSN, MDCK
  IC50: 81.3 ± 10.4 µM
[6]; Influenza A virus, MDCK
  IC50: > 100 µM
[7]
  CC50 at 72 h: > 100 µM
[8]
  CC50 at 72 h: > 100 µM
[9]
  sample concentrations provoking prevention of virus-induced hemagglutination in viral HA assay: no

## O=c1cc(-c2ccc(O)c(O)c2)oc2cc(O)cc(O)c12 [Compound 15, luteolin]
[3]
  IC50: > 100 µM
[4]
  MIC in HA assay against S. pneumoniae DSM20566: 23.0 ± 11.8 µM (≈ 6.58 µg/mL)
[13]
  CC50 at 72 h: 23 ± 0.18 µM
[14]
  CC50 at 72 h: > 100 µM
[9]
  sample concentrations provoking prevention of virus-induced hemagglutination in viral HA assay: no

## sanggenon D [Compound 3]
[1]
  sample concentrations provoking induction of erythrocyte lysis in bacterial HA assay: 100 µM
[4]
  MIC in HA assay against S. pneumoniae DSM20566: 31.6 µM and 31.6 ± 0.00 µM
[15]
  CC50: 99 ± 8.7 µM
[16]
  CC50: 79.9 ± 11.2 µM
[9]; [18]
  sample concentrations provoking induction of erythrocyte lysis in viral HA assay: 31.6 to 100 µM
  sample concentrations provoking prevention of virus-induced hemagglutination in viral HA assay: no

## COc1c(CC=C(C)C)cc([C@@H]2CC(=O)c3c(O)cc(O)cc3O2)cc1CC=C(C)C [Compound 27, abyssinone-V 4'-methyl ether]
[17]; [19]
  biofilm formation by scanning electron microscopy: completely prevented biofilm formation; also recorded: strong effect
[17]; treatment from 6 h after inoculation
  biofilm formation by scanning electron microscopy: no biofilm was formed
[17]; treatment from 9 h after inoculation
  biofilm formation by scanning electron microscopy: affected biofilm formation weakly
[17]; treatment from 48 h after inoculation
  biofilm formation by scanning electron microscopy: had no effect
[1]; human
  sample concentrations provoking induction of erythrocyte lysis in bacterial HA assay: 31.6 to 100 µM
[2]
  sample concentrations provoking induction of erythrocyte lysis in viral HA assay: no
[3]
  IC50: 33.1 ± 11.7 µM
[4]
  MIC in HA assay against S. pneumoniae DSM20566: 7.72 ± 3.53 µM (≈ 3.26 µg/mL)
[12]
  viral yield in A549 cells in the presence of NanA of DSM20566: 7.4 ± 1.2%
  virus yield in A549 cells in the absence of NanA: 3.2 ± 1.4%
[7]
  CC50 at 72 h: 2.29 ± 0.1 µM
[8]
  CC50 at 72 h: > 100 µM
[9]
  sample concentrations provoking prevention of virus-induced hemagglutination in viral HA assay: 3.16 to 100 µM

## O=c1c(O)c(-c2ccc(O)cc2O)oc2cc(O)cc(O)c12 [Compound 16, morin]
[1]
  sample concentrations provoking induction of erythrocyte lysis in bacterial HA assay: no
[2]
  sample concentrations provoking induction of erythrocyte lysis in viral HA assay: no
[3]
  IC50: 62 ± 8.03 µM
[4]
  MIC in HA assay against S. pneumoniae DSM20566: 23.0 ± 11.8 µM (≈ 6.95 µg/mL)
[5]; WSN, MDCK
  IC50: > 100 µM
[6]; Influenza A virus, MDCK
  IC50: 70.1 ± 9.83 µM
[7]
  CC50 at 72 h: > 100 µM
[8]
  CC50 at 72 h: > 100 µM
[9]
  sample concentrations provoking prevention of virus-induced hemagglutination in viral HA assay: no

## O=C1CC(c2ccc(O)c(O)c2)Oc2cc(O)cc(O)c21 (racemic) [Compound 11, (±)-eriodictyol]
[1]
  sample concentrations provoking induction of erythrocyte lysis in bacterial HA assay: no
[2]
  sample concentrations provoking induction of erythrocyte lysis in viral HA assay: no
[3]
  IC50: > 100 µM
[4]
  MIC in HA assay against S. pneumoniae DSM20566: 45.3 ± 30.6 µM (≈ 13.1 µg/mL)
[13]
  CC50 at 72 h: > 100 µM
[5]; WSN, MDCK
  IC50: 68.4 ± 12.9 µM
[6]; Influenza A virus, MDCK
  IC50: 78.3 ± 5.72 µM
[14]
  CC50 at 72 h: > 100 µM
[9]
  sample concentrations provoking prevention of virus-induced hemagglutination in viral HA assay: no

## CCC(CC)O[C@@H]1C=C(C(=O)O)C[C@H](N)[C@H]1NC(C)=O [Oseltamivir carboxylate GS4071, reference compound]
[17]; [19]
  biofilm formation by scanning electron microscopy: did not impair biofilm formation
[4]
  MIC in HA assay against S. pneumoniae DSM20566: 2.08 ± 1.25 µM (≈ 0.591 µg/mL)
